Results from patent publication US20260345517A1, “DOSAGE REGIMENS FOR TREATING STARGARDT DISEASE” (Alkeus Pharmaceuticals, Inc., priority 2024, published 2026).

Experiment: TEASE-1: safety and adverse events
Format: in vivo, human
Experimental: The Tolerability and Effects of gildeuretinol acetate in Stargardt Disease (Clinical trial group 1 also known as TEASE-1) was a 24-month, multicenter, double-masked, placebo-controlled trial designed to evaluate the efficacy and safety of daily oral gildeuretinol acetate in slowing the growth of atrophic retinal lesions in Stargardt disease patients. The trial was conducted at multiple sites in the United States (NCT02402660).
Patients 12 years or older, clinically diagnosed with Stargardt disease, with at least one ABCA4 mutation, at least one eye presenting with well-demarcated areas of reduced fundus autofluorescence, and with any visual acuity, were eligible.
Patients were randomized to gildeuretinol acetate 14 mg capsules, gildeuretinol acetate 24 mg capsules, or placebo capsules, to be taken once daily for one year. After one year, 50% of randomly selected patients receiving placebo were crossed over in a 1:1 ratio to gildeuretinol acetate 14 mg capsules or gildeuretinol acetate 24 mg capsules for a second year.
Gildeuretinol acetate and placebo capsules were identical appearing capsules. Patients were advised to avoid vitamin A-containing supplements and liver-based products. Fruits and vegetables contain beta-carotene, not preformed vitamin A, and could be consumed without limitation. Trial visits occurred at 8 weeks and 6, 12, 18, and 24 months following screening and randomization.

CC(=O)OC/C=C(C)/C=C/C=C(C)/C=C/C1=C(C)CCCC1(C)C [gildeuretinol acetate, C20-D3-retinol acetate]
Inflammation (24 mg, N = 15): 0 patients (%) | Influenza (24 mg, N = 15): 1 (6.7) patients (%) | Insomnia (24 mg, N = 15): 0 patients (%) | Intracranial pressure increased (24 mg, N = 15): 1 (6.7) patients (%) | Irritability (24 mg, N = 15): 0 patients (%) | Jaw operation (24 mg, N = 15): 1 (6.7) patients (%) | Knee arthroplasty (24 mg, N = 15): 0 patients (%) | Laryngitis (24 mg, N = 15): 0 patients (%) | Lip swelling (24 mg, N = 15): 0 patients (%) | Low density lipoprotein increased (24 mg, N = 15): 0 patients (%) | Muscle spasms (24 mg, N = 15): 0 patients (%) | Muscle strain (24 mg, N = 15): 0 patients (%) | Musculoskeletal pain (24 mg, N = 15): 1 (6.7) patients (%) | Nasopharyngitis (24 mg, N = 15): 3 (20.0) patients (%) | Nausea (24 mg, N = 15): 1 (6.7) patients (%) | Neck pain (24 mg, N = 15): 0 patients (%) | Nephrolithiasis (24 mg, N = 15): 0 patients (%) | Nerve compression (24 mg, N = 15): 0 patients (%) | Neuralgia (24 mg, N = 15): 0 patients (%) | Obsessive-compulsive disorder (24 mg, N = 15): 0 patients (%) | Oropharyngeal pain (24 mg, N = 15): 3 (20.0) patients (%) | Osteoporosis (24 mg, N = 15): 1 (6.7) patients (%) | Pain (24 mg, N = 15): 0 patients (%) | Pain in extremity (24 mg, N = 15): 2 (13.3) patients (%) | Pain in jaw (24 mg, N = 15): 0 patients (%) | Peripheral coldness (24 mg, N = 15): 0 patients (%) | Pharyngitis streptococcal (24 mg, N = 15): 0 patients (%) | Photophobia (24 mg, N = 15): 0 patients (%) | Photopsia (24 mg, N = 15): 0 patients (%) | Plantar fasciitis (24 mg, N = 15): 0 patients (%) | Pleurisy (24 mg, N = 15): 0 patients (%) | Pneumonia (24 mg, N = 15): 0 patients (%) | Premenstrual syndrome (24 mg, N = 15): 1 (6.7) patients (%) | Punctate keratitis (24 mg, N = 15): 0 patients (%) | Pyrexia (24 mg, N = 15): 1 (6.7) patients (%) | Radius fracture (24 mg, N = 15): 0 patients (%) | Rash (24 mg, N = 15): 0 patients (%) | Rotator cuff syndrome (24 mg, N = 15): 1 (6.7) patients (%) | Sialoadenitis (24 mg, N = 15): 0 patients (%) | Sinus congestion (24 mg, N = 15): 1 (6.7) patients (%) | Sinusitis (24 mg, N = 15): 0 patients (%) | Sjogren's syndrome (24 mg, N = 15): 0 patients (%) | Skin infection (24 mg, N = 15): 0 patients (%) | Subdural haematoma (24 mg, N = 15): 0 patients (%) | Syncope (24 mg, N = 15): 1 (6.7) patients (%) | Tendonitis (24 mg, N = 15): 0 patients (%) | Thoracic outlet syndrome (24 mg, N = 15): 0 patients (%) | Tongue dry (24 mg, N = 15): 0 patients (%) | Tooth abscess (24 mg, N = 15): 1 (6.7) patients (%) | Tooth extraction (24 mg, N = 15): 1 (6.7) patients (%) | Toothache (24 mg, N = 15): 0 patients (%) | Upper respiratory tract infection (24 mg, N = 15): 1 (6.7) patients (%) | Vision blurred (24 mg, N = 15): 0 patients (%) | Visual field defect (24 mg, N = 15): 0 patients (%) | Visual impairment (24 mg, N = 15): 0 patients (%) | Vitamin B12 deficiency (24 mg, N = 15): 0 patients (%) | Vitamin D decreased (24 mg, N = 15): 1 (6.7) patients (%) | Vitreous floaters (24 mg, N = 15): 0 patients (%) | Vulvovaginal candidiasis (24 mg, N = 15): 1 (6.7) patients (%) | Wrist fracture (24 mg, N = 15): 0 patients (%) | Xanthelasma (24 mg, N = 15): 1 (6.7) patients (%) | elevated intracranial pressure (24 mg, one patient): Elevated intracranial pressure was measured | papilledema grade (modified Frisen scale) with elevated intracranial pressure (24 mg, one patient, resolved upon temporary interruption and acetazolamide): Grade 1 | Abdominal discomfort (crossover, N = 10): 1 (10.0) patients (%) | Abdominal distension (crossover, N = 10): 0 patients (%) | Abdominal pain upper (crossover, N = 10): 0 patients (%) | Abnormal dreams (crossover, N = 10): 0 patients (%) | Adverse events, Overall (crossover, N = 10): 8 (80) patients (%) | Alanine aminotransferase increased (crossover, N = 10): 1 (10.0) patients (%) | Alopecia (crossover, N = 10): 0 patients (%) | Ankle fracture (crossover, N = 10): 0 patients (%) | Arthralgia (crossover, N = 10): 1 (10.0) patients (%) | Arthritis (crossover, N = 10): 1 (10.0) patients (%) | Aspartate aminotransferase increased (crossover, N = 10): 1 (10.0) patients (%) | Back injury (crossover, N = 10): 0 patients (%) | Back pain (crossover, N = 10): 0 patients (%) | Blepharospasm (crossover, N = 10): 1 (10.0) patients (%) | Blood cholesterol increased (crossover, N = 10): 0 patients (%) | Blood creatinine increased (crossover, N = 10): 0 patients (%) | Blood iron decreased (crossover, N = 10): 0 patients (%) | Blood pressure increased (crossover, N = 10): 0 patients (%) | Blood triglycerides increased (crossover, N = 10): 0 patients (%) | Bowel movement irregularity (crossover, N = 10): 0 patients (%) | Bronchitis (crossover, N = 10): 0 patients (%) | Cartilage injury (crossover, N = 10): 0 patients (%) | Conjunctival laceration (crossover, N = 10): 0 patients (%) | Conjunctivitis (crossover, N = 10): 0 patients (%) | Constipation (crossover, N = 10): 0 patients (%) | Cough (crossover, N = 10): 0 patients (%) | Death (crossover, N = 10): 0 patients (%) | Depression (crossover, N = 10): 0 patients (%) | Diarrhoea (crossover, N = 10): 1 (10.0) patients (%) | Diplopia (crossover, N = 10): 0 patients (%) | Dry eye (crossover, N = 10): 0 patients (%) | Dry mouth (crossover, N = 10): 0 patients (%) | Dry skin (crossover, N = 10): 0 patients (%) | Ear discomfort (crossover, N = 10): 0 patients (%) | Ear infection (crossover, N = 10): 1 (10.0) patients (%) | Ear pain (crossover, N = 10): 0 patients (%) | Eczema (crossover, N = 10): 1 (10.0) patients (%) | Electrocardiogram abnormal (crossover, N = 10): 1 (10.0) patients (%) | Erythema (crossover, N = 10): 0 patients (%) | Eye irritation (crossover, N = 10): 0 patients (%) | Eye pain (crossover, N = 10): 0 patients (%) | Eye pruritus (crossover, N = 10): 0 patients (%) | Face injury (crossover, N = 10): 0 patients (%) | Faeces soft (crossover, N = 10): 0 patients (%) | Fall (crossover, N = 10): 0 patients (%) | Gastroenteritis (crossover, N = 10): 1 (10.0) patients (%) | Gastroenteritis viral (crossover, N = 10): 0 patients (%) | Hair texture abnormal (crossover, N = 10): 0 patients (%) | Hand fracture (crossover, N = 10): 0 patients (%) | Headache (crossover, N = 10): 0 patients (%) | Herpes zoster (crossover, N = 10): 0 patients (%) | Hordeolum (crossover, N = 10): 0 patients (%) | Hypertension (crossover, N = 10): 0 patients (%) | Hypobarism (crossover, N = 10): 0 patients (%) | Hypothyroidism (crossover, N = 10): 0 patients (%) | Hysterectomy (crossover, N = 10): 0 patients (%) | Inflammation (crossover, N = 10): 0 patients (%) | Influenza (crossover, N = 10): 0 patients (%) | Insomnia (crossover, N = 10): 0 patients (%) | Intracranial pressure increased (crossover, N = 10): 0 patients (%) | Irritability (crossover, N = 10): 0 patients (%) | Jaw operation (crossover, N = 10): 0 patients (%) | Knee arthroplasty (crossover, N = 10): 0 patients (%) | Laryngitis (crossover, N = 10): 0 patients (%) | Lip swelling (crossover, N = 10): 0 patients (%) | Low density lipoprotein increased (crossover, N = 10): 0 patients (%) | Muscle spasms (crossover, N = 10): 0 patients (%) | Muscle strain (crossover, N = 10): 0 patients (%) | Musculoskeletal pain (crossover, N = 10): 0 patients (%) | Nasopharyngitis (crossover, N = 10): 1 (10.0) patients (%) | Nausea (crossover, N = 10): 0 patients (%) | Neck pain (crossover, N = 10): 0 patients (%) | Nephrolithiasis (crossover, N = 10): 1 (10.0) patients (%) | Nerve compression (crossover, N = 10): 0 patients (%) | Neuralgia (crossover, N = 10): 0 patients (%) | Obsessive-compulsive disorder (crossover, N = 10): 0 patients (%) | Oropharyngeal pain (crossover, N = 10): 1 (10.0) patients (%) | Osteoporosis (crossover, N = 10): 0 patients (%) | Pain (crossover, N = 10): 0 patients (%) | Pain in extremity (crossover, N = 10): 0 patients (%) | Pain in jaw (crossover, N = 10): 0 patients (%) | Peripheral coldness (crossover, N = 10): 0 patients (%) | Pharyngitis streptococcal (crossover, N = 10): 0 patients (%) | Photophobia (crossover, N = 10): 0 patients (%) | Photopsia (crossover, N = 10): 0 patients (%) | Plantar fasciitis (crossover, N = 10): 0 patients (%) | Pleurisy (crossover, N = 10): 1 (10.0) patients (%) | Pneumonia (crossover, N = 10): 1 (10.0) patients (%) | Premenstrual syndrome (crossover, N = 10): 0 patients (%) | Punctate keratitis (crossover, N = 10): 0 patients (%) | Pyrexia (crossover, N = 10): 0 patients (%) | Radius fracture (crossover, N = 10): 0 patients (%) | Rash (crossover, N = 10): 1 (10.0) patients (%) | Rotator cuff syndrome (crossover, N = 10): 0 patients (%) | Sialoadenitis (crossover, N = 10): 0 patients (%) | Sinus congestion (crossover, N = 10): 0 patients (%) | Sinusitis (crossover, N = 10): 0 patients (%) | Sjogren's syndrome (crossover, N = 10): 0 patients (%) | Skin infection (crossover, N = 10): 0 patients (%) | Subdural haematoma (crossover, N = 10): 0 patients (%) | Syncope (crossover, N = 10): 0 patients (%) | Tendonitis (crossover, N = 10): 0 patients (%) | Thoracic outlet syndrome (crossover, N = 10): 0 patients (%) | Tongue dry (crossover, N = 10): 0 patients (%) | Tooth abscess (crossover, N = 10): 0 patients (%) | Tooth extraction (crossover, N = 10): 0 patients (%) | Toothache (crossover, N = 10): 0 patients (%) | Upper respiratory tract infection (crossover, N = 10): 2 (20.0) patients (%) | Vision blurred (crossover, N = 10): 1 (10.0) patients (%) | Visual field defect (crossover, N = 10): 1 (10.0) patients (%) | Visual impairment (crossover, N = 10): 0 patients (%) | Vitamin B12 deficiency (crossover, N = 10): 0 patients (%) | Vitamin D decreased (crossover, N = 10): 0 patients (%) | Vitreous floaters (crossover, N = 10): 1 (10.0) patients (%) | Vulvovaginal candidiasis (crossover, N = 10): 0 patients (%) | Wrist fracture (crossover, N = 10): 0 patients (%) | Xanthelasma (crossover, N = 10): 0 patients (%)
